Measured values taken from patent US5550139A, “Serine protease inhibitors” (The Wichita State University, priority 1994, dated 1996).
Each block holds one compound with its values, some of them ahead of it.

Experiments:
[1] = biological target: T1, cathepsin G (Cath G) (Homo sapiens, UniProt P08311); test: Inactivation of human leukocyte cathepsin G (kobs/[I]); format: biochemical; conditions: for kinact/KI: pH 7.5
T1 construct: purchased Athens Research and Technology, Athens, Ga
T1 sequence (P08311 21-244 limits assumed): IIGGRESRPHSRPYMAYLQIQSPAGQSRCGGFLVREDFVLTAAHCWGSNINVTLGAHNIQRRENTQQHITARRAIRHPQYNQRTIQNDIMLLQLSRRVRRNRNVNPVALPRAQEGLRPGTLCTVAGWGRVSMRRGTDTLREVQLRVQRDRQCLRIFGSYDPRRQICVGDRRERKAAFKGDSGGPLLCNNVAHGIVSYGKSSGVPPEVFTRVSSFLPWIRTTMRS
Description: Human leukocyte cathepsin G (1.33 uM) is incubated with compound 8 (133 uM) (a) or compound 10 (13.3 uM) (b) in 0.1M HEPES buffer, pH 7.5, and 10% DMSO. Aliquots were withdrawn at different time intervals and assayed for enzymatic activity using methoxysuccinyl Ala-Ala-Pro-Phe p-nitroanilide.
Human leukocyte cathepsin G (1.48 μM was incubated with inhibitor 5A (1.48 μM in 0.1M HEPES buffer, pH 7.5, and 1% DMSO. Aliquots were withdrawn at different time intervals and assayed for enzymatic activity using methoxysuccinyl Ala-Ala-Pro-Phe p-nitroanilide.
(§1) An in vitro assay can be used to screen compounds of the invention for the ability to reduce or inhibit serine proteinase activity. The human leukocyte elastase (HLE), cathepsin G (Cath G), and proteinase-3 assays have each been described (Groutas et al., J. Med. Chem. 32:1607-1611, 1989; Groutas et al., Arch. Biochem. Biophys. 294:144-146, 1992; Kao et al., J. Clin. Invest. 82:1963-1973, 1988, each incorporated by reference herein). The pseudo first-order inactivation rate constants (kobs) were obtained from plots of ln(vt /vo) vs t, and expressed in terms of the apparent second-order inactivation rate constant, kobs /[I] M^-1 s^-1 (Tables 1-7). Tables 1-7 disclose the activity of preferred compounds of the invention as inhibitors of HLE and Cath G. Table 7 discloses the activity of Compounds 4A (C) and 3E (D) as inhibitors of Proteinase-3 activity. Compounds (A) and (B) have been disclosed previously (Groutas et al., Bioorganic and Med. Chem. 1(4):273-277, 1993; Groutas et al., J. Med. Chem. 36:3178, 1993).
(§2) Human leukocyte cathepsin G was obtained from Athens Research and Technology, Athens, Ga. Methoxysuccinyl Ala-Ala-Pro-Val p-nitroanilide and methoxysuccinyl Ala-Ala-Pro-Phe p-nitroanilide were purchased from Sigma Chemicals Co., St. Louis, Mo. Baker-analyzed 60-200 mesh silica gel was used for flash chromatography.

[2] = biological target: T2, human leukocyte elastase (HLE) (Homo sapiens, UniProt P08246); test: Inactivation of human leukocyte elastase (kobs/[I]); format: biochemical
T2 construct: purchased Elastin Products Co., Owensville, Mo
T2 sequence (P08246 30-247 limits assumed): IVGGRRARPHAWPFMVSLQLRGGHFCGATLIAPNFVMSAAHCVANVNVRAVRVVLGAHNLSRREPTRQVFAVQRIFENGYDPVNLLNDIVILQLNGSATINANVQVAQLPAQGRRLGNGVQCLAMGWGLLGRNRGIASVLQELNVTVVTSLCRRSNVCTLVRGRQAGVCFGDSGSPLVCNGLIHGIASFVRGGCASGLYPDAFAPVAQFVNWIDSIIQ
Excerpt: as §1
XII. Materials: Human leukocyte elastase was purchased from Elastin Products Co., Owensville, Mo.
as §2

Compound: O=C1[C@H](Cc2ccccc2)N(C/C=C/c2ccccc2)S(=O)(=O)N1CS(=O)(=O)c1ccccc1 [Compound 15E]
kinact/KI ([1]; Table 6): 760 M⁻¹ s⁻¹

Compound: O=C(/C=C/Sc1ccccc1)OCN1C(=O)C(Cc2ccccc2)CS1(=O)=O (stereo not shown) [Compound 7C]
kinact/KI ([1]; Table 4): 5520 M⁻¹ s⁻¹ | kinact/KI ([2]; Table 4): 240 M⁻¹ s⁻¹

Compound: O=C(CN1[C@@H](Cc2ccccc2)C(=O)N(CF)S1(=O)=O)OCc1ccccc1 [Compound 5A, (S) -Benzyl-5(benzyloxycarbonylmethyl)-2-fluoromethyl-3-oxo-1,2,5-thiadiazolidine 1.1-dioxide]
time-dependent loss of serine protease activity ([1]; FIG. 6, Cath G 1.48 μM, inhibitor 1.48 μM, 0.1M HEPES pH 7.5, 1% DMSO): time-dependent loss of serine protease activity | kinact/KI ([2]; Table 2): 810 M⁻¹ s⁻¹

Compound: CC(C)(C)OC(=O)N[C@H](Cc1ccccc1)C(=O)OCN1C(=O)C(Cc2ccccc2)CS1(=O)=O (stereo partly shown) [Compound 4B]
kinact/KI ([1]; Table 3): 260 M⁻¹ s⁻¹ | kinact/KI ([2]; Table 3): 1140 M⁻¹ s⁻¹

Compound: CC(C)(C)OC(=O)N1CCC[C@H]1C(=O)OCN1C(=O)C(Cc2ccccc2)CS1(=O)=O (stereo partly shown) [Compound 6B]
kinact/KI ([1]; Table 3): 590 M⁻¹ s⁻¹ | kinact/KI ([2]; Table 3): 170 M⁻¹ s⁻¹

Compound: O=C(OCN1C(=O)C(Cc2ccccc2)CS1(=O)=O)[C@@H]1CCCN1C(=O)OCc1ccccc1 (stereo partly shown) [Compound 5B]
kinact/KI ([1]; Table 3): 7700 M⁻¹ s⁻¹ | kinact/KI ([2]; Table 3): 220 M⁻¹ s⁻¹

Compound: O=C(/C=C\Sc1ccccc1)OCN1C(=O)C(Cc2ccccc2)CS1(=O)=O (stereo not shown) [Compound 6C]
kinact/KI ([1]; Table 4): 7270 M⁻¹ s⁻¹ | kinact/KI ([2]; Table 4): 170 M⁻¹ s⁻¹

Compound: CC(C)C[C@H]1C(=O)N(CS(=O)(=O)c2ccccc2)S(=O)(=O)N1CC(=O)OCc1ccccc1 [Compound 4E]
kinact/KI ([2]; Table 6): 1710 M⁻¹ s⁻¹

Compound: O=C(CNC(=O)OCc1ccccc1)OCN1C(=O)C(Cc2ccccc2)CS1(=O)=O (stereo not shown) [Compound 11B]
kinact/KI ([1]; Table 3): 2680 M⁻¹ s⁻¹ | kinact/KI ([2]; Table 3): 220 M⁻¹ s⁻¹

Compound: O=C(Cc1ccccc1Nc1c(Cl)cccc1Cl)OCN1C(=O)C(Cc2ccccc2)CS1(=O)=O (stereo not shown) [Compound 2]
kinact/KI ([1]; Table 1A): 80 M⁻¹ s⁻¹ | kinact/KI ([2]; Table 1A): 30 M⁻¹ s⁻¹

Compound: CC(C)C[C@H]1C(=O)N(CS(=O)(=O)c2ccccc2)S(=O)(=O)N1Cc1ccccc1 [Compound 17E]
kinact/KI ([1]; Table 6): 440 M⁻¹ s⁻¹

Compound: CC(=O)Oc1ccccc1C(=O)OCN1C(=O)C(Cc2ccccc2)CS1(=O)=O (stereo not shown) [Compound 4]
kinact/KI ([1]; Table 1A): 3000 M⁻¹ s⁻¹ | kinact/KI ([2]; Table 1A): 830 M⁻¹ s⁻¹

Compound: O=C(C=CS(=O)(=O)c1ccccc1)OCN1C(=O)C(Cc2ccccc2)CS1(=O)=O (stereo not shown) [Compound 8C]
kinact/KI ([1]; Table 4): 2770 M⁻¹ s⁻¹ | kinact/KI ([2]; Table 4): 380 M⁻¹ s⁻¹

Compound: CC(C)C[C@H]1C(=O)N(CS(C)(=O)=O)S(=O)(=O)N1C [Compound 18E]
kinact/KI ([2]; Table 6): 4590 M⁻¹ s⁻¹

Compound: O=C(CS(=O)(=O)c1ccccc1)OCN1C(=O)C(Cc2ccccc2)CS1(=O)=O (stereo not shown) [Compound 5C]
kinact/KI ([1]; Table 4): 1050 M⁻¹ s⁻¹ | kinact/KI ([2]; Table 4): 340 M⁻¹ s⁻¹

Compound: CC(C)(C)OC(=O)CN1[C@@H](Cc2ccccc2)C(=O)N(CS(=O)(=O)c2ccccc2)S1(=O)=O [Compound 14E]
kinact/KI ([1]; Table 6): 1130 M⁻¹ s⁻¹

Compound: CC(C)Cc1ccc(C(C)C(=O)OCN2C(=O)C(Cc3ccccc3)CS2(=O)=O)cc1 (stereo not shown) [Compound 1]
kinact/KI ([1]; Table 1A): 240 M⁻¹ s⁻¹ | kinact/KI ([2]; Table 1A): 160 M⁻¹ s⁻¹

Compound: CCCCN1[C@@H](CC(C)C)C(=O)N(CS(=O)(=O)c2ccccc2)S1(=O)=O [Compound 16E]
kinact/KI ([2]; Table 6): 10600 M⁻¹ s⁻¹

Compound: C[C@@H](NC(=O)OCc1ccccc1)C(=O)OCN1C(=O)C(Cc2ccccc2)CS1(=O)=O (stereo partly shown) [Compound 9B]
kinact/KI ([1]; Table 3): 1820 M⁻¹ s⁻¹ | kinact/KI ([2]; Table 3): 300 M⁻¹ s⁻¹

Compound: O=C(N[C@@H](Cc1ccccc1)C(=O)OCN1C(=O)C(Cc2ccccc2)CS1(=O)=O)OCc1ccccc1 (stereo partly shown) [Compound 1B]
kinact/KI ([1]; Table 3): 20 M⁻¹ s⁻¹ | kinact/KI ([2]; Table 3): 110 M⁻¹ s⁻¹

Compound: O=C(N[C@H](Cc1ccccc1)C(=O)OCN1C(=O)C(Cc2ccccc2)CS1(=O)=O)OCc1ccccc1 (stereo partly shown) [Compound 3B]
kinact/KI ([1]; Table 3): 160 M⁻¹ s⁻¹ | kinact/KI ([2]; Table 3): 2300 M⁻¹ s⁻¹

Compound: O=C1[C@H](Cc2ccccc2)N(S(=O)(=O)c2ccccc2)S(=O)(=O)N1CS(=O)(=O)c1ccccc1 [Compound 1E]
kinact/KI ([1]; Table 6): 830 M⁻¹ s⁻¹

Compound: CC(C)(C)OC(=O)N[C@@H](Cc1ccccc1)C(=O)OCN1C(=O)C(Cc2ccccc2)CS1(=O)=O (stereo partly shown) [Compound 2B]
kinact/KI ([1]; Table 3): 10 M⁻¹ s⁻¹ | kinact/KI ([2]; Table 3): 680 M⁻¹ s⁻¹

Compound: CC(C)C[C@H]1C(=O)N(CS(=O)(=O)c2ccccc2)S(=O)(=O)N1CC(=O)OC(C)(C)C [Compound 5E]
kinact/KI ([2]; Table 6): 2020 M⁻¹ s⁻¹

Second part, led by results:

kinact/KI ([1]; Table 3): 560 M⁻¹ s⁻¹ | kinact/KI ([2]; Table 3): 310 M⁻¹ s⁻¹
Compound: C[C@@H](NC(=O)OC(C)(C)C)C(=O)OCN1C(=O)C(Cc2ccccc2)CS1(=O)=O (stereo partly shown) [Compound 10B]

kinact/KI ([1]; Table 1B): 40 M⁻¹ s⁻¹ | HLE % inhibition ([2]; Table 1B footnote, [I]/[E] ratio of 200, 10 minute incubation period): 24%
Compound: O=C1C(Cc2ccccc2)CS(=O)(=O)N1C(CF)Sc1ccccc1 (stereo not shown) [Compound 7, 4-Benzyl-2-(2-fluoro-1-phenylthioethyl) isothiazolidin-3-one 1,1-dioxide]

kinact/KI ([1]; Table 6): 30 M⁻¹ s⁻¹
Compound: O=C1[C@H](Cc2ccccc2)NS(=O)(=O)N1CCl [Compound 8E]

kinact/KI ([1]; Table 5): 2080 M⁻¹ s⁻¹
Compound: CS(=O)(=O)CN1C(=O)C(Cc2ccccc2)CS1(=O)=O (stereo not shown) [Compound 15D]

kinact/KI ([1]; Table 4): 3340 M⁻¹ s⁻¹ | kinact/KI ([2]; Table 4): 1020 M⁻¹ s⁻¹
Compound: O=C(CSc1ccccc1)OCN1C(=O)C(Cc2ccccc2)CS1(=O)=O (stereo not shown) [Compound 3C]

kinact/KI ([1]; Table 2): 750 M⁻¹ s⁻¹ | kinact/KI ([2]; Table 2): 1320 M⁻¹ s⁻¹
Compound: CN1[C@@H](Cc2ccccc2)C(=O)N(CF)S1(=O)=O [Compound 2A, (S)-4-Benzyl-2-fluoromethyl-5-methyl-3-oxo-1,2,5-thiadiazolidine 1.1-dioxide]

kinact/KI ([1]; Table 5): 2700 M⁻¹ s⁻¹ | kinact/KI ([2]; Table 5): 160 M⁻¹ s⁻¹
Compound: O=C1C(Cc2ccccc2)CS(=O)(=O)N1CF (stereo not shown) [Compound 1D, 4-benzyl-2-(fluoromethyl)isothiazolidin-3-one 1,1 dioxide]

kinact/KI ([1]; Table 1A): 3330 M⁻¹ s⁻¹ | kinact/KI ([2]; Table 1A): 470 M⁻¹ s⁻¹
Compound: Nc1ccc(O)c(C(=O)OCN2C(=O)C(Cc3ccccc3)CS2(=O)=O)c1 (stereo not shown) [Compound 5]

kinact/KI ([1]; Table 4): 640 M⁻¹ s⁻¹ | kinact/KI ([2]; Table 4): 680 M⁻¹ s⁻¹
Compound: O=C(CCc1ccccc1)OCN1C(=O)C(Cc2ccccc2)CS1(=O)=O (stereo not shown) [Compound 2C]

kinact/KI ([1]; Table 1B): 420 M⁻¹ s⁻¹ | kinact/KI ([2]; Table 1B): 50 M⁻¹ s⁻¹
Compound: O=C1C(Cc2ccccc2)CS(=O)(=O)N1C(CF)S(=O)(=O)c1ccccc1 (stereo not shown) [Compound 8, 4-Benzyl-2-(2-fluoro-1-phenylsulfonylethyl) isothiazolidin-3-one 1,1-dioxide]
time-dependent loss of serine protease activity ([1]; FIG. 5, Cath G 1.33 uM, inhibitor 133 uM, 0.1M HEPES pH 7.5, 10% DMSO): time-dependent loss of serine protease activity

kinact/KI ([1]; Table 6): 320 M⁻¹ s⁻¹
Compound: CCCCN1[C@@H](Cc2ccccc2)C(=O)N(CS(=O)(=O)c2ccccc2)S1(=O)=O [Compound 12E]

kinact/KI ([1]; Table 2): 600 M⁻¹ s⁻¹
Compound: O=C1[C@H](Cc2ccccc2)NS(=O)(=O)N1CF [Compound 1A, (S)-4-Benzyl-2-fluoromethyl-3-oxo-1,2,5-thiadiazolidine 1.1-dioxide]

kinact/KI ([1]; Table 5): 2040 M⁻¹ s⁻¹ | kinact/KI ([2]; Table 5): 670 M⁻¹ s⁻¹
Compound: O=C1C(Cc2ccccc2)CS(=O)(=O)N1CCl (stereo not shown) [Compound 2D]

kinact/KI ([1]; Table 6): 130 M⁻¹ s⁻¹
Compound: CN1[C@@H](Cc2ccccc2)C(=O)N(CS(=O)(=O)c2ccccc2)S1(=O)=O [Compound 11E]

kinact/KI ([2]; Table 6): 190 M⁻¹ s⁻¹
Compound: CC(C)C[C@@H]1NS(=O)(=O)N(CS(=O)(=O)c2ccccc2)C1=O [Compound 2E]

kinact/KI ([1]; Table 4): 770 M⁻¹ s⁻¹ | kinact/KI ([2]; Table 4): 320 M⁻¹ s⁻¹
Compound: O=C(C[S+]([O-])c1ccccc1)OCN1C(=O)C(Cc2ccccc2)CS1(=O)=O (stereo not shown) [Compound 4C]

kinact/KI ([1]; Table 6): 30 M⁻¹ s⁻¹
Compound: O=C1[C@H](Cc2ccccc2)NS(=O)(=O)N1CS(=O)(=O)c1ccccc1 [Compound 10E]

kinact/KI ([2]; Table 2): 930 M⁻¹ s⁻¹
Compound: O=C1[C@H](Cc2ccccc2)N(Cc2ccccc2)S(=O)(=O)N1CF [Compound 3A, (S)-4.5-Dibenzyl-2-fluoromethyl-3-oxo-1,2,5-thiadiazolidine 1.1-dioxide]

kinact/KI ([1]; Table 4): 3220 M⁻¹ s⁻¹ | kinact/KI ([2]; Table 4): 280 M⁻¹ s⁻¹
Compound: O=C(/C=C/c1ccccc1)OCN1C(=O)C(Cc2ccccc2)CS1(=O)=O (stereo not shown) [Compound 1C]

kinact/KI ([1]; Table 5): 590 M⁻¹ s⁻¹
Compound: O=C1C(Cc2ccccc2)CS(=O)(=O)N1C[S+]([O-])c1ccccc1 (stereo not shown) [Compound 13D]

Cath G kobs/[I] ([1]; Table 5): 960 M⁻¹ s⁻¹
Compound: O=C1C(Cc2ccccc2)CS(=O)(=O)N1CS(=O)(=O)c1ccccc1 (stereo not shown) [Compound 14D]
